Results: ChEMBL document CHEMBL1201862, “PubChem BioAssay data set” (2004)
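All cell lines were grown in 96-well plates and treated with compound for 48 hours. Here, GI50 denotes the concentration required for 50% inhibition of growth.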 Activity calls are given as the source filed them. Rule as the data show it: active = GI50 up to about 1.1 µM and inactive = higher.

Tests used:
Assay in all cases: inhibition of tumour cell growth, NCI panel, 48 h
[1] = system: HL-60
[2] = system: COLO 205
[3] = system: SK-MEL-2
[4] = system: U-251
[5] = system: HOP-92
[6] = system: SF-268
[7] = system: HCC 2998
[8] = system: NCI-H23
[9] = system: OVCAR-4
[10] = system: NCI-H460
[11] = system: SK-MEL-28
[12] = system: SN12C
[13] = system: HOP-62
[14] = system: HCT-15
[15] = system: K562

Compound	GI50 [1]	GI50 [2]	GI50 [3]	GI50 [4]	GI50 [5]	GI50 [6]	GI50 [7]	GI50 [8]	GI50 [9]	GI50 [10]	GI50 [11]	GI50 [12]	GI50 [13]	GI50 [14]	GI50 [15]
O=C1CCC2(c3ccccc3)Nc3ccc(Cl)cc3N12 (stereo unspecified)	> 100 µM (inactive)	> 100 µM (inactive)	> 100 µM (inactive)	> 100 µM (inactive)	84.5 µM (inactive)	> 100 µM (inactive)	> 100 µM (inactive)	> 100 µM (inactive)	> 100 µM (inactive)	> 100 µM (inactive)	> 100 µM (inactive)	> 100 µM (inactive)	> 100 µM (inactive)	> 100 µM	77.8 µM (inactive)
Cc1c(C(=O)/C=C/c2ccccc2[N+](=O)[O-])[n+]([O-])c2ccccc2[n+]1[O-]	1.58 µM (inactive)	3.13 µM (inactive)	11.3 µM (inactive)	15.2 µM (inactive)	13.6 µM (inactive)	–	–	4.63 µM (inactive)	9.64 µM (inactive)	4.32 µM (inactive)	11.7 µM (inactive)	6 µM (inactive)	18.2 µM (inactive)	3.3 µM	3.39 µM (inactive)
COC(=O)C(Cc1cc(OC)c(OC)c(OC)c1)C(=O)OC	> 320 µM (inactive)	> 320 µM (inactive)	> 320 µM (inactive)	> 320 µM (inactive)	> 320 µM (inactive)	> 320 µM (inactive)	> 320 µM (inactive)	> 320 µM (inactive)	–	> 320 µM (inactive)	> 320 µM (inactive)	> 320 µM (inactive)	> 320 µM (inactive)	> 320 µM	> 320 µM (inactive)
COC(=O)c1cc(Cl)ccc1NC(=O)c1ccc([N+](=O)[O-])cc1	27.4 µM (inactive)	–	49 µM (inactive)	7 µM (inactive)	–	–	29.2 µM (inactive)	18.8 µM (inactive)	3.33 µM (inactive)	42.3 µM (inactive)	28.2 µM (inactive)	–	15.2 µM (inactive)	32.2 µM	26.9 µM (inactive)
COc1cccc(NC(=O)/C(CC(=O)CC(c2ccccc2)c2c(O)c3ccccc3oc2=O)=N\NC(C)(C)C)c1OC (stereo unspecified)	22.5 µM (inactive)	> 100 µM (inactive)	> 100 µM (inactive)	> 100 µM (inactive)	17.6 µM (inactive)	> 100 µM (inactive)	40.9 µM (inactive)	–	> 100 µM (inactive)	> 100 µM (inactive)	> 100 µM (inactive)	–	86.1 µM (inactive)	28.4 µM	44.9 µM (inactive)
